Source: ChEMBL document CHEMBL1155346, “Synthesis, photochemical E (trans)-->Z (cis) isomerization and antimicrobial activity of 2-chloro-5-methylpyridine-3-olefin derivatives” (2009)
In brackets after ≈: the same amount, converted by molar mass.

Key:
Format in all cases: functional
Pseudomonas aeruginosa = experiment: Antibacterial activity against Pseudomonas aeruginosa MTCC 741 by broth dilution method
Candida albicans [1] = experiment: Antifungal activity against Candida albicans at 150 ug; details: read-out: DIZ
Aspergillus niger [2] = experiment: Antifungal activity against Aspergillus niger at 100 ug; details: read-out: DIZ
Escherichia coli = experiment: Antibacterial activity against Escherichia coli by broth dilution method
Bacillus subtilis = experiment: Antibacterial activity against Bacillus subtilis MTCC 441 by broth dilution method
Aspergillus niger [3] = experiment: Antifungal activity against Aspergillus niger at 150 ug; details: read-out: DIZ
Staphylococcus aureus = experiment: Antibacterial activity against Staphylococcus aureus MTCC 11 by broth dilution method
Rhizopus arrhizus [4] = experiment: Antifungal activity against Rhizopus oryzae at 150 ug; details: read-out: DIZ
Rhizopus arrhizus [5] = experiment: Antifungal activity against Rhizopus oryzae at 100 ug; details: read-out: DIZ
Candida albicans [6] = experiment: Antifungal activity against Candida albicans at 100 ug; details: read-out: DIZ
Saccharomyces cerevisiae [7] = experiment: Antifungal activity against Saccharomyces cerevisiae at 100 ug; details: read-out: DIZ
Saccharomyces cerevisiae [8] = experiment: Antifungal activity against Saccharomyces cerevisiae at 150 ug; details: read-out: DIZ

SMILES | MIC (Pseudomonas aeruginosa) | zone of inhibition at 150 µg/disc (Candida albicans [1]) | zone of inhibition at 100 µg/disc (Aspergillus niger [2]) | MIC (Escherichia coli) | MIC (Bacillus subtilis) | zone of inhibition at 150 µg/disc (Aspergillus niger [3]) | MIC (Staphylococcus aureus) | zone of inhibition at 150 µg/disc (Rhizopus arrhizus [4]) | zone of inhibition at 100 µg/disc (Rhizopus arrhizus [5]) | zone of inhibition at 100 µg/disc (Candida albicans [6]) | zone of inhibition at 100 µg/disc (Saccharomyces cerevisiae [7]) | zone of inhibition at 150 µg/disc (Saccharomyces cerevisiae [8])
COC(=O)/C=C/c1cc(C)cnc1Cl | 75 µg/mL (≈ 354 µM) | 11 mm | 16 mm | 37.5 µg/mL (≈ 177 µM) | 37.5 µg/mL (≈ 177 µM) | 17 mm | 75 µg/mL (≈ 354 µM) | 11 mm | 10 mm | 8 mm | – | –
Cc1cnc(Cl)c(/C=C\C#N)c1 | 75 µg/mL (≈ 420 µM) | 10 mm | 9 mm | 37.5 µg/mL (≈ 210 µM) | 37.5 µg/mL (≈ 210 µM) | 12 mm | 75 µg/mL (≈ 420 µM) | 10 mm | 9 mm | – | – | –
Cc1cnc(Cl)c(/C=C/CO)c1 | 37.5 µg/mL (≈ 204 µM) | 15 mm | 14 mm | 37.5 µg/mL (≈ 204 µM) | 37.5 µg/mL (≈ 204 µM) | 17 mm | 75 µg/mL (≈ 408 µM) | 18 mm | 16 mm | 13 mm | 12 mm | 14 mm
Cc1cnc(Cl)c(/C=C\CO)c1 | 75 µg/mL (≈ 408 µM) | 14 mm | 12 mm | 75 µg/mL (≈ 408 µM) | 37.5 µg/mL (≈ 204 µM) | 16 mm | 37.5 µg/mL (≈ 204 µM) | 17 mm | 14 mm | 11 mm | 11 mm | 13 mm
Cc1cnc(Cl)c(/C=C/C#N)c1 | 75 µg/mL (≈ 420 µM) | 12 mm | 13 mm | 75 µg/mL (≈ 420 µM) | 75 µg/mL (≈ 420 µM) | 15 mm | 75 µg/mL (≈ 420 µM) | 12 mm | 10 mm | 10 mm | – | –
CC(=O)/C=C/c1cc(C)cnc1Cl | 75 µg/mL (≈ 383 µM) | 17 mm | 13 mm | 75 µg/mL (≈ 383 µM) | 37.5 µg/mL (≈ 192 µM) | 14 mm | 37.5 µg/mL (≈ 192 µM) | 13 mm | 12 mm | 13 mm | – | –
COC(=O)/C=C\c1cc(C)cnc1Cl | 37.5 µg/mL (≈ 177 µM) | 13 mm | 14 mm | 37.5 µg/mL (≈ 177 µM) | 37.5 µg/mL (≈ 177 µM) | 17 mm | 8.12 µg/mL (≈ 38.4 µM) | 11 mm | 10 mm | 11 mm | – | –
CC(=O)/C=C\c1cc(C)cnc1Cl | 37.5 µg/mL (≈ 192 µM) | 11 mm | 14 mm | 37.5 µg/mL (≈ 192 µM) | 37.5 µg/mL (≈ 192 µM) | 16 mm | 75 µg/mL (≈ 383 µM) | 13 mm | 11 mm | 9 mm | – | –
C[C@@H]1[C@H](O)[C@@H](C)/C=C/C=C/C=C/C=C/C=C/C=C/C=C/[C@H](O[C@@H]2O[C@H](C)[C@@H](O)[C@H](N)[C@@H]2O)C[C@@H]2O[C@](O)(C[C@@H](O)C[C@@H](O)[C@H](O)CC[C@@H](O)C[C@@H](O)CC(=O)O[C@H]1C)C[C@H](O)[C@H]2C(=O)O [AMPHOTERICIN B] | – | – | 26 mm | – | – | – | – | – | 23 mm | 23.5 mm | 22 mm | –
CC1(C)S[C@@H]2[C@H](NC(=O)Cc3ccccc3)C(=O)N2[C@H]1C(=O)O [PENICILLIN G] | 12.5 µg/mL (≈ 37.4 µM) | – | – | 12.5 µg/mL (≈ 37.4 µM) | 1.56 µg/mL (≈ 4.67 µM) | – | 1.56 µg/mL (≈ 4.67 µM) | – | – | – | – | –
CN[C@@H]1[C@H](O[C@H]2[C@H](O[C@H]3[C@H](O)[C@@H](O)[C@H](N=C(N)N)[C@@H](O)[C@@H]3N=C(N)N)O[C@@H](C)[C@]2(O)C=O)O[C@@H](CO)[C@H](O)[C@H]1O [STREPTOMYCIN] | 3.12 µg/mL (≈ 5.37 µM) | – | – | 1.56 µg/mL (≈ 2.69 µM) | 6.25 µg/mL (≈ 10.7 µM) | – | 6.25 µg/mL (≈ 10.7 µM) | – | – | – | – | –
